# Reference: patent US12522575B2, “2-diarylmethyl-4-aminotetrahydropyran derivatives and related compounds as anticancer, antiinflammatory, antifibrotic and neuroprotective agents” (Atux Iskay LLC, priority 2021, dated 2026)
# Key:
# PP2A = PP2A responses in lung fibroblasts; format: cell-based; conditions: 1 μM, 24 hours
# Protocol: Each dot represents cells from a different subject. Student t-tests or 2-way ANOVA were performed and a p-value […] was denoted as * when comparing to the vehicle treated groups.
# Each dot represents cells from a different subject. Student t-tests were performed and a p-value […] was denoted as * when comparing non-smoker (NS) to IPF vehicle groups or ** when comparing vehicle IPF to compound IPF groups. Left plot: cell source-healthy non-smoker; Middle plot: cell source—IPF; Right: cell source—IPF.
# IPF fibroblasts were exposed to v or 1 micromolar of the ATUX compounds media for 24 hours and increase in PP2A activity is shown in right hand group. PP2A activity in vehicle treated fibroblasts from healthy nonsmokers is shown for comparison in the left hand group.
# [1] = test system: D425 medulloblastoma cells; test: D425 cell viability / proliferation (CellTiter-Glo); format: cell-based; conditions: Medulloblastoma cell; 48 hours treatment, CellTiter-Glo; read-out: IC50 for D425 cell growth
# Protocol: D425 medulloblastoma cells were purchased from SigmaAldrich. D425 meduloblastoma cells were cultured in improved Dulbecco's modified Eagle's medium (DMEM) Richter's modification supplemented with 20% fetal bovine serum and 1% Penicillin-streptomycin. Incubation was performed at 37° C. and 5% CO2.
# D425 cells were seeded at 3000-3500 cells/90 ul growth medium per well on 96-well tissue culture plates. Cells were incubated overnight to allow them to recover. Next day cells were treated with tested compounds and incubated for 48 hours.
# Cell Proliferation assays in triplicate were performed at each concentration. Compounds test range was 1-30 μM (0, 5, 10, 15, 20, 25, and 30). The compounds were dissolved in DMSO. A series of dilutions were made in 1% DMSO in growth medium so that the final concentration of DMSO is 0.1% in all of treatments.
# After treatment, cells were allowed to equilibrate at room temperature for one hour. Cell proliferation was measured by Luminescence quantification using Promega CellTiter-Glo Luminescent Cell Viability Assay. To perform the assay, 90 ul of Celltiter-Glo substrate was added to each well, plates were shake for 2 minutes and allowed to equilibrate for 10 minutes at room temperature. Luminescence intensity was measured using the Spectramax i3x plate reader.
# The Luminescence intensity data were analyzed using the computer software Graphpad Prism. In the absence of the compound, the luminescence intensity (Lt) in each data set was defined as 100% cell viability. The percent cell in the presence of each compound was calculated according to the following equation: % Cell=L/Lt, were L=the luminescence intensity in the presence of the compound.
# The values of % cell versus a series of compound concentrations (0, 5, 10, 15, 20, 25, and 30 μM) were then plotted using Nonlinear regression analysis of Sigmoidal dose-response curve. IC50 value was determined by the concentration causing a half-maximal percent activity.
# [2] = test system: bleomycin-induced pulmonary fibrosis; test: Bleomycin induced lung fibrosis model in mice; format: in vivo
# Text: Bleomycin exposure reproducibly induces lung fibrosis in mice and bleomycin induced lung fibrosis is commonly used as an animal model to assess the efficacy of experimental therapeutics for idiopathic pulmonary fibrosis, see for example Tashiro et al, “Exploring Animal Models that Resemble Idiopathic Pulmonary Fibrosis”, Front. Med. 4:118 (2017). doi: 10.3389/fmed.2017.0018. Herein presented are data on the efficacy of Example 6 (Ex-6) in cellular models of lung fibrosis and in a mouse bleoycin induced lung fibrosis model, see FIGS. 1 through 8.
# In brief, the animal model consisted of bleomycin administration using a combined protocol previously described by Wyman et al (Wyman, A. E., et al., “Sirtuin 7 is decreased in pulmonary fibrosis and regulates the fibrotic phenotype of lung fibroblasts”. Am J Physiol Lung Cell Mol Physiol, 2017. 312 (6): p. L945-L958.) and Geraghty et al (Geraghty, P. and Foronjy, R. ‘Protein Transfection of Mouse Lung’. J Vis Exp, (75), e50080 2013 May 15). After sedation was achieved (87.5 mg/kg Ketamine/12.5 mg/kg xylazine), mice were suspended from their upper incisors (see Geraghty et al. for visual publication of intratracheal delivery). The oropharynx was opened so that a catheter/Penn Century MicroSprayer (Penn-Century, Wyndmoor, Philadelphia, PA) can be introduced into the trachea. The vocal cords and trachea were visualized by placing a light source against the trachea of the mouse. The MicroSprayer was inserted intratracheally, and the bleomycin solution (0.075 U/mouse) was instilled in 50 μL of sterile PBS. The MicroSprayer creates a mist rather than droplets, for better tissue distribution and reduces the risk of animal suffocation. Control mice were instilled with 50 μl of sterile PBS with no additives. This intratracheal maneuvering and delivery took about 30 seconds to complete. Animals were allowed to recover from sedation. Water was supplemented with the compound/drug beginning either before, 7 or 20 days after bleomycin treatment.
# Ex-6 was dosed at 5 mg/kg in the bleomycin induced fibrosis. In vivo data is shown in FIG. 3: C57BL/6J mice were orally administered 5 mg/kg Ex-6 once daily, beginning on the same day as bleomycin (BLM) treatment to test if activation of PP2A could prevent establishment of idiopathic pulmonary fibrosis (IPF). […] Differences were shown in compliance, tissue elastance, and forced vital capacity of 3-month-old C57BL/6J mice following administration of vehicle or Example 6 after tracheal instillation of saline or bleomycin, indicating prevention of bleomycin-induced pulmonary fibrosis in mice by administration of Example 6. Graphs were represented as mean±S.E.M, where n=7 animals per group. P values, shown when comparing both treatments connected by a line, were determined by Student t-tests. […]
# ERK and JNK = ERK and JNK signaling in lung fibroblasts (immunoblot, densitometry); format: cell-based; conditions: 1 μM, 24 hours, lung fibroblasts (FIGS. 2 and 3)
# Protocol: Each dot represents cells from a different subject. Student t-tests or 2-way ANOVA were performed and a p-value […] was denoted as ** when comparing between phosphorylated and unphosphorylated groups.
# Compounds of the present invention reactivate PP2A responses in fibroblasts from healthy and IPF subjects.
structure (smiles),measurement,setting,value
"O=S(=O)(NC1CCOC(C2c3ccc(F)cc3CCc3cc(F)ccc32)C1)c1ccc(OC(F)(F)F)cc1 (centres unmarked) [Example 6, N-(2-(2,8-difluoro-10,11-dihydro-5H-dibenzo[a,d][7]annulen-5-yl)tetrahydro-2H-pyran-4-yl)-4-(trifluoromethoxy)benzenesulfonamide]",PP2A responses in lung fibroblasts from healthy subjects,PP2A; vs vehicle (FIG. 4),reactivation of PP2A responses
same,PP2A responses in lung fibroblasts from idiopathic pulmonary fibrosis (IPF),PP2A; vs vehicle IPF (FIG. 5),reactivation of PP2A responses
same,IC50,[1],5.8 µM
same,"bleomycin-induced PV loop changes, compliance, tissue elastance and forced vital capacity (FVC)","[2]; 5 mg/kg orally once daily from the day of bleomycin, C57BL/6J mice (FIG. 6)",prevented
same,collagen deposition in lung (trichrome staining),"[2]; bleomycin mice, vs vehicle control (FIG. 7)",attenuates collagen deposition
same,"bleomycin-induction of fibrosis related genes Acta2, Ccn2, Col1a1, FN1 in lung tissue","[2]; bleomycin mice, vs vehicle control (FIG. 8)",suppressed
same,"toxicity in mice (external appearance, behavior, body weight)","[2]; three-week administration, vs vehicle groups",no obvious toxicity
same,ERK and JNK signaling,ERK and JNK,reduced ERK and JNK signaling
